In PMC2758489 (Journal of neurochemistry, 2009):

Target: tau (Homo sapiens, UniProt P10636, P618L)
Test: heparin-induced fibrillization, ThT fluorescence
Type: biochemical

tau, sequence (P10636 561-689 P618L): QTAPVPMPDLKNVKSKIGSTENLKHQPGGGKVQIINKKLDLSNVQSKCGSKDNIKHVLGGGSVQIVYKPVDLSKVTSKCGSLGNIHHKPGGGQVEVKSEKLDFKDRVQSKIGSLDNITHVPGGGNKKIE

IC50 [µM] | Structure (SMILES)
~3.5 | C/C=C(/C=O)[C@H](CC=O)CC(=O)OCCc1ccc(O)cc1 [(+)-oleocanthal]
~2.9 | C/C=C(/C=O)[C@@H](CC=O)CC(=O)OCCc1ccc(O)cc1 [compound 1, (-)-oleocanthal]
